Test: Solubility tests on SAHA in aqueous HPβCD solutions by UV spectrophotometry
Format: physicochemical
Conditions: for Concentration: dissolved SAHA in the filtered solution brought to 10 ml, by Lambert and Beer's law with mean ε; for Assorbance (AU): water, one week stirring at room temperature, filtered, brought to 10 ml, read at 240 nm
Experimental: Five aqueous solutions of SAHA in cyclodextrin were prepared, maintaining a constant amount of drug and gradually increasing the cyclodextrin concentraion.
Two mg of SAHA (0.0075 mmol) are weighed in five assay tubes and to each is added 1 ml of a solution of 2-hydroxypropyl-β-cyclodextrin (HPβCD) in double-distilled water; we started with a molar ratio of 1:1 corresponding to 0.0116 g of cyclodextrin, proceeding then with molar ratios of 1:2 corresponding to 0.0232 g, 1:3 corresponding to 0.035 g, 1:4 corresponding to 0.046, up to a final ratio of 1:5, corresponding to 0.058 g of cyclodextrin.
The tubes thus prepared and well sealed are left for one week under stirring in a mechanical stirrer at room temperature.
At the end of this period, the solutions are filtered with a 0.5 µm diameter membrane filter in five 10 ml round-bottomed flasks brought to volume with double-distilled water, and the spectrophotometric readings are taken at 240 nm.
From the mean value of ε calculated previously, and using Lambert and Beer's law, the millimolar concentrations of the five solutions can be calculated, as shown in the table.

Concentration (SAHA:HPβCD molar ratio 1:1): 126 µM | Assorbance (AU) (SAHA:HPβCD molar ratio 1:1): 1.6862 AU | Concentration (SAHA:HPβCD molar ratio 1:2): 191 µM | Assorbance (AU) (SAHA:HPβCD molar ratio 1:2): 2,5591 AU | Concentration (SAHA:HPβCD molar ratio 1:3): 196 µM | Assorbance (AU) (SAHA:HPβCD molar ratio 1:3): 2.6196 AU | Concentration (SAHA:HPβCD molar ratio 1:4): 207 µM | Assorbance (AU) (SAHA:HPβCD molar ratio 1:4): 2.7752 AU | Concentration (SAHA:HPβCD molar ratio 1:5): 216 µM | Assorbance (AU) (SAHA:HPβCD molar ratio 1:5): 2.8932 AU
Compound: O=C(CCCCCCC(=O)Nc1ccccc1)NO [SAHA, suberoylanilide hydroxamic acid]

— patent EP2125023B1, “SOLUBLE FORMS OF INCLUSION COMPLEXES OF HISTONE DEACETYLASE INHIBITORS AND CYCLODEXTRINS, THEIR PREPARATION PROCESSES AND USES IN THE PHARMACEUTICAL FIELD” (Universita'Degli Studi di Roma "La Sapienza", priority 2007, dated 2008)
